Assay results published in patent US20220117913A1, “DEZOCINE DERIVATIVE AND MEDICAL USE THEREOF” (YANGTZE RIVER PHARMACEUTICAL GROUP CO., LTD., priority 2019, published 2022).
Structures can show the parent of a compound that is named as a salt. Where two headings read alike, the source gives them in different places.

How the values were obtained:
δ opioid receptor = δ opioid receptor (Homo sapiens, UniProt P41143); assay: radioisotope ligand competitive binding assay, δ opioid receptor (DOR)
From the text: (§1) Through the radioisotope ligand competitive binding assay, IC50 of the compound was used as an indicator to evaluate the affinity of the compound to κ and δ opioid receptors.
(§2) (1) Reagents • The cell membrane was extracted from stably transfected cells constructed by WuXi AppTec, Shanghai. • 3H-diprenophrine (PerkinElmer, Cat: NET1121250UC, Lot: 2143599) • 3H-DAMGO (PerkinElmer, Cat: NET902250UC, Lot: 2139100) • 3H-DADLE (PerkinElmer, Cat: NET648250UC, Lot: 2060549) • Tris base (Sigma, Cat: T6066-1KG), prepare 1M stock and adjust pH to 7.4. • 0.5M EDTA (Invitrogen, Cat: 15575-038) • 1M MgCl2 (Sigma, Cat: M1028-100 ml) • PEI (Poly ethyleneimine) (Sigma, Cat: P3143) • Microscint 20 cocktail (PerkinElmer, Cat: 6013329) • Naltrindole (Sigma, Cat; N115) • (±)trans-U-50488 (Sigma, Cat: D8040) • DAMGO (Sigma, Cat: E7384)
(§3) (1) 1 μL of the test compounds, negative control (i.e., DMSO) and positive control (i.e., non-specific binding well compound), after being prepared, were respectively transferred to a 96-well plate;
(§4) (2) 99 μL of the prepared opioid receptor membrane protein was added to each well of the 96-well plate containing 1 μL of the compound;
(§5) (3) 100 μL of 2× corresponding radioisotope ligand was added to each well;
(§6) (4) The plate was placed on a shake and incubated at room temperature for 1 hour;
(§7) (5) Each well of the GF/C plate was soaked with 50 μL of 0.3% PEI for at least half an hour in advance;
(§8) (6) After the incubation was finished, the GF/C plate was washed with plate washing buffer once by using Harvest. Then, the cell membranes in the 96-well plate were collected onto the GF/C plate using Harvest, and the GF/C plate was washed four times with the plate washing buffer, each time about 250 μL;
(§9) (7) The GF/C plate was placed in an oven at 50° C. for 1 hour;
(§10) (8) The bottom of the GF/C plate was sealed with a plate sealing film, 50 μL of Microscint-20 scintillation fluid was added to each well, and then the plate was sealed with a transparent sealing film for microplate;
(§11) (9) The radioactive signal value CPM was read using MicroBeta2;
(§12) (10) The data was analyzed with Prism 5. The percentage inhibition rate was calculated with the calculation formula: % Inh=(1-Background subtracted Assay value/Background subtracted HC value)*100.

μ opioid receptor = μ opioid receptor (Homo sapiens, UniProt P35372); assay: radioisotope ligand competitive binding assay, μ opioid receptor (MOR)
κ opioid receptor = κ opioid receptor (Homo sapiens, UniProt P41145); assay: radioisotope ligand competitive binding assay, κ opioid receptor (KOR)
From the text: as §1, §2, §3, §4, §5, §6, §7, §8, §9, §10, §11, §12

[1] = [3H]-DADLE 0.5 nM, cell membrane of stably transfected cells, read-out: δ IC50
[2] = [3H]DAMGO 0.5 nM, cell membrane of stably transfected cells, read-out: μ IC50
[3] = [3H]Diprenorphine 0.3 nM, cell membrane of stably transfected cells, read-out: κ IC50

SMILES	IC50 (δ opioid receptor; [1]) [µM]	IC50 (μ opioid receptor; [2]) [µM]	IC50 (κ opioid receptor; [3]) [µM]	IC50 (δ opioid receptor) [µM]	IC50 (μ opioid receptor) [µM]	IC50 (κ opioid receptor) [µM]
COc1ccc2c(c1)[C@@]1(C)CCCCC[C@@H](C2)[C@@H]1N(C)CCc1ccccc1 [Hydrochloride of compound 13]	> 10	0.1 to 1	> 10			
C[C@@]12CCCCC[C@@H](Cc3ccc(OCc4ccccc4)cc31)[C@@H]2N [Hydrochloride of compound 36]	1 to 10	0.01 to 0.1	1 to 10			
CCN[C@H]1[C@H]2CCCCC[C@]1(C)c1cc(O)ccc1C2 [Hydrochloride of compound 19]	1 to 10	< 0.01	0.01 to 0.1			
CCCCCN(C)[C@H]1[C@H]2CCCCC[C@]1(C)c1cc(O)ccc1C2 [Hydrochloride of compound 33]	0.1 to 1	< 0.01	0.1 to 1			
COc1ccc2c(c1)[C@@]1(C)CCCCC[C@@H](C2)[C@@H]1NC(C)C [Hydrochloride of compound 6]	> 10	1 to 10	1 to 10			
CN[C@H]1[C@H]2CCCCC[C@]1(C)c1cc(OCc3ccccc3)ccc1C2 [Hydrochloride of compound 38]	1 to 10	0.01 to 0.1	1 to 10			
CN[C@H]1[C@H]2CCCCC[C@]1(C)c1cc(O)ccc1C2 [Hydrochloride of compound 18]	1 to 10	0.01 to 0.1	0.1 to 1			
CCCN[C@H]1[C@H]2CCCCC[C@]1(C)c1cc(OC)ccc1C2 [Hydrochloride of compound 3]	> 10	0.01 to 0.1	0.1 to 1			
CCCN(C)[C@H]1[C@H]2CCCCC[C@]1(C)c1cc(O)ccc1C2 [Hydrochloride of compound 31]	0.01 to 0.1	< 0.01	0.1 to 1			
CCOc1ccc2c(c1)[C@@]1(C)CCCCC[C@@H](C2)[C@@H]1N [Hydrochloride of compound 35]				> 10	0.1 to 1	> 10
CCCCN(C)[C@H]1[C@H]2CCCCC[C@]1(C)c1cc(O)ccc1C2 [Hydrochloride of compound 32]	0.01 to 0.1	< 0.01	0.01 to 0.1			
CCCN(C)[C@H]1[C@H]2CCCCC[C@]1(C)c1cc(OC)ccc1C2 [Hydrochloride of compound 14]	> 10	0.1 to 1	1 to 10			
CN[C@H]1[C@H]2CCCCC[C@]1(C)c1cc(OC)ccc1C2 [Hydrochloride of compound 1]	> 10	0.1 to 1	1 to 10			
COc1ccc2c(c1)[C@@]1(C)CCCCC[C@@H](C2)[C@@H]1N(C)Cc1ccccc1 [Hydrochloride of compound 17]	> 10	0.1 to 1	> 10			
C[C@@]12CCCCC[C@@H](Cc3ccc(O)cc31)[C@@H]2NCCc1ccc(Cl)c(Cl)c1 [Hydrochloride of compound 27]	0.1 to 1	0.01 to 0.1	0.01 to 0.1			
COc1ccc2c(c1)[C@@]1(C)CCCCC[C@@H](C2)[C@@H]1NCc1ccccc1 [Hydrochloride of compound 9]	1 to 10	0.1 to 1	0.1 to 1			
CN(Cc1ccccc1)[C@H]1[C@H]2CCCCC[C@]1(C)c1cc(OCc3ccccc3)ccc1C2 [Hydrochloride of compound 40]	0.01 to 0.1	< 0.01	< 0.01			
CN(CCc1ccccc1)[C@H]1[C@H]2CCCCC[C@]1(C)c1cc(O)ccc1C2 [Hydrochloride of compound 30]	0.01 to 0.1	< 0.01	0.01 to 0.1			
COc1ccc2c(c1)[C@@]1(C)CCCCC[C@@H](C2)[C@@H]1NCCc1ccc(Cl)c(Cl)c1 [Hydrochloride of compound 10]	> 10	0.1 to 1	1 to 10			
CCN[C@H]1[C@H]2CCCCC[C@]1(C)c1cc(OC)ccc1C2 [Hydrochloride of compound 2]	> 10	0.1 to 1	1 to 10			
CN(C)[C@H]1[C@H]2CCCCC[C@]1(C)c1cc(O)ccc1C2 [Hydrochloride of compound 28]	1 to 10	< 0.01	0.1 to 1			
